Literature values, collected in US8927002B2, “Stent with a coating or a basic body containing a lithium salt and use of lithium salts for prevention of restenosis” (Biotronik VI Patent AG, priority 2008, dated 2015).

What was measured:
[1] = test system: various prostate cancer cell lines; settings: cell culture; by reducing gene expression in the S-phase of the cell cycle
[2] = test system: interleukins (IL-15; IL-8)

For `[Cl-].[Li+]` [lithium chloride], the “proliferation of various prostate cancer cell lines” value [1] is listed as “significantly suppresses the proliferation” and the “secretion of certain interleukins (IL-15; IL-8)” value [2] is listed as “increased secretion”.
